These results are taken from PubChem BioAssay (NCI).

Common to all, as to test: growth of human tumour cells (NCI), 48 h
The test system of experiment [1] is TK-10 renal.
The subject of experiment [2] is NCI/ADR-RES ovarian.
For experiment [3], the system named is MOLT-4 leukemia.
In experiment [4] the test system is SN12C renal.
The test system of experiment [5] is HT29 colon.
For experiment [6], the system named is ACHN renal.
Experiment [7] concerns CCRF-CEM leukemia.
The subject of experiment [8] is OVCAR-8 ovarian.
The test system of experiment [9] is RPMI-8226 leukemia.
The subject of experiment [10] is T-47D breast.
For experiment [11], the system named is K-562 leukemia.
The test system of experiment [12] is SW-620 colon.
Experiment [13] concerns 786-0 renal.
Experiment [14] has as its system OVCAR-5 ovarian.
In experiment [15] the test system is A549 NSCLC.
For experiment [16], the system named is UACC-257 melanoma.
Experiment [17] deals with SK-MEL-28 melanoma.
Experiment [18] has as its system M14 melanoma.
For experiment [19], the system named is IGROV1 ovarian.
For experiment [20], the system named is NCI-H460 lung.

SMILES strings stand for the structures.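 Five compound concentrations were applied to cells in 96-well plates for 48 hours; endpoints were derived by simple linear interpolation of the resulting dose-response curve. TGI denotes the concentration required for complete inhibition of growth.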 Where a SMILES comes first, the peptide text is derived from it. The star is where a group is joined. Pentanoyl = CCCCC(=O)*; Boc = CC(C)(C)OC(=O)* Some results are limits rather than exact numbers.

Regarding `CC(=O)Nc1sc([N+](=O)[O-])cc1S(=O)(=O)c1ccc(Cl)cc1`, the TGI was more than 100 µM in experiment [1]; 64 µM in experiment [2]; more than 50.2 µM in [3]; more than 100 µM in experiment [4]; more than 52.8 µM in experiment [5]; 10.6 µM in experiment [6]. The TGI is more than 100 µM in [7]; more than 100 µM in experiment [8]; more than 100 µM in experiment [9]; 12.2 µM in [10]; more than 100 µM in [11]; more than 100 µM in experiment [12]. In addition, the TGI in experiment [13] is more than 100 µM; in experiment [14], more than 100 µM; in [15], more than 54.6 µM; in experiment [16] it was 16.8 µM; in [17] it was more than 100 µM; in experiment [18] it was 9.79 µM. Also, the TGI is more than 100 µM in experiment [19] and 10.2 µM in [20].
Consider `Cc1nn(C(=O)c2ccc(Cl)cc2)c2c1C(c1cccc([N+](=O)[O-])c1)SC(N)=N2` (stereo not given), for which the TGI in [1], in experiment [2], in [3], in experiment [4], in [5] and in experiment [6] was more than 10 µM each time. Moreover, the TGI in [7], in [8], in experiment [9], in experiment [10], in experiment [11] and in experiment [12] was more than 10 µM in each case. The TGI in experiment [13], in experiment [14], in experiment [15], in [16], in experiment [17] and in experiment [18] was more than 10 µM throughout. For the same molecule, the TGI in [19] and in experiment [20] was more than 10 µM in each case.
In the case of `O=C1C(Cl)=C(N2C(=O)CCCC2=O)C(=O)c2ccccc21`, the TGI was 31.3 µM in experiment [1]; 95.3 µM in experiment [2]; 55.6 µM in experiment [3]; 46.2 µM in [4]; 29.2 µM in experiment [5]; 21 µM in [6]. Besides, the TGI in experiment [7] was 23.3 µM; in [8] it was 23.9 µM; in experiment [9], 40.9 µM; in experiment [10], 95.7 µM; in [11] it was 6.54 µM; in experiment [12] it was 48.3 µM. Moreover, the TGI amounted to 33 µM in experiment [13]; 38.1 µM in experiment [14]; 54.7 µM in [15]; 38.7 µM in [16]; 33.4 µM in [17]; 37.5 µM in [18]. For the same molecule, the TGI in experiment [19] stood at 30.1 µM; in [20], 27.8 µM.
Consider `O=C(CCCN1CCC2(CC1)NC(=O)c1ccccc1O2)c1ccc(F)cc1`, for which the TGI in experiment [1], in experiment [2], in experiment [3], in experiment [4], in experiment [5] and in experiment [6] was more than 100 µM each time. In addition, the TGI in experiment [7], in [8], in experiment [9], in [10], in experiment [11] and in [12] was more than 100 µM each time. Besides, the TGI in experiment [13], in experiment [14], in experiment [15], in experiment [16], in experiment [17] and in experiment [18] was more than 100 µM in each case. In addition, the TGI in experiment [19] and in experiment [20] was more than 100 µM in each case.
`COCc1cc2c(cc1/C(=C/[N+](=O)[O-])CS(=O)(=O)c1ccccc1)OCO2`: the TGI in [1], in [2], in [3], in [4], in [5] and in experiment [6] was more than 100 µM each time. The TGI in experiment [7], in experiment [8], in experiment [9], in experiment [10], in [11] and in [12] was more than 100 µM in each case. For the same molecule, the TGI in experiment [13], in experiment [14], in experiment [15], in [16], in experiment [17] and in experiment [18] was more than 100 µM throughout. Further, the TGI in experiment [19] and in experiment [20] was more than 100 µM in each case.
Regarding `N#Cc1c(NCCc2ccc(F)cc2)c2ccccc2n2c1nc1ccccc12`, the TGI in experiment [1] is 60.8 µM; in experiment [2], 59.2 µM; in [3], more than 100 µM; in experiment [4], more than 100 µM; in experiment [5], 91.5 µM; in [6], 35.2 µM. Also, the TGI was more than 100 µM in experiment [7]; 25.4 µM in experiment [8]; more than 100 µM in [9]; 95.6 µM in [10]; more than 100 µM in [11]; more than 100 µM in experiment [12]. In addition, the TGI in experiment [13] was 17.6 µM; in [14], more than 100 µM; in experiment [15] it was more than 100 µM; in [16], more than 100 µM; in experiment [17], more than 100 µM; in [18] it was more than 100 µM. Besides, the TGI in [19] is 39.9 µM; in experiment [20], more than 100 µM.
Take `CCCCC(=O)Oc1ccc(CC(NC(=O)OC(C)(C)C)C(=O)NC(C)C(=O)NC(Cc2ccccc2)C(=O)NCC(N)=O)cc1` (stereo not given) (Boc-Y(Pentanoyl)AFG-NH2; configuration not given here): the TGI in experiment [1] is more than 100 µM; in experiment [2] it was more than 100 µM; in [3], 54.2 µM; in experiment [4], more than 100 µM; in experiment [5] it was 40 µM; in experiment [6], more than 100 µM. In addition, the TGI was more than 100 µM in [7]; 62.5 µM in experiment [8]; 44.8 µM in [9]; 79 µM in experiment [10]; more than 100 µM in experiment [11]; more than 100 µM in experiment [12]. Also, the TGI in experiment [13] was more than 100 µM; in experiment [14] it was 52 µM; in [15], more than 100 µM; in experiment [16], 71.4 µM; in experiment [17], 64.1 µM; in experiment [18], more than 100 µM. Moreover, the TGI was 53.7 µM in experiment [19] and more than 100 µM in experiment [20].
`Cn1cc(-c2cnc(-c3cn(C)c4ccccc34)cn2)c2ccccc21`: the TGI in experiment [1] is more than 100 µM; in [2] it was 40.7 µM; in experiment [3], more than 100 µM; in experiment [4] it was more than 100 µM; in experiment [5] it was 36.6 µM; in [6], more than 94.6 µM. The TGI in experiment [7] was 3.58 µM; in [8], 44.5 µM; in [9], more than 44.4 µM; in experiment [10] it was more than 100 µM; in experiment [11], more than 52.5 µM; in experiment [12] it was more than 38.6 µM. The TGI in experiment [13] was 29.9 µM; in experiment [14], more than 100 µM; in experiment [15] it was more than 100 µM; in experiment [16] it was more than 100 µM; in [17] it was more than 79.2 µM; in experiment [18], 27.7 µM. For the same molecule, the TGI in [19] was more than 50.5 µM; in experiment [20], more than 100 µM.
